Reference: US20040147527A1, “Methods of use of gemifloxacin compounds against fluoroquinolone resistant Streptococcus pneumoniae bacteria” (priority 1999, published 2004)
≈ marks a conversion by molar mass, not a printed value.

How the values were obtained:
[1] = tested on: S. pneumoniae (CFX and TFX susceptible and resistant clinical isolates); assay: Postantibiotic effect (PAE), viable colony counting technique; assay type: cell-based, Streptococcus pneumoniae
Protocol: This invention was based, in part, on analyses evaluating the comparative activity of gemifloxacin against various strains of S. pneumoniae. An objective of these analyses was to determine the postantibiotic effect (herein “PAE”) of GFX in CFX and TFX susceptible and resistant S. pneumoniae.
CFX resistant clinical isolates of S. pneumoniae were collected from across Canada. MICs were determined using a microbroth dilution technique described by the NCCLS. Topisomerase IV (parC) and DNA gyrase (gyrA) mutations were confirmed by sequencing the QRDR region of each gene. Two fluoroquinolone susceptible and 8 resistant isolates (3 CFX resistant. 5 CFX, TFX resistant) were selected for study. […] Antibiotics were removed using dilution into sterile media and the PAE assessed using a viable colony counting technique.

[2] = tested on: S. pneumoniae with reduced susceptibility to CIP; assay: MIC by NCCLS microbroth dilution, 80 clinical isolates with CIP MIC ≧2 μg/ml; assay type: cell-based; details: Streptococcus pneumoniae
Protocol: Topoisomerase IV (parC) and DNA gyrase (gyrA) mutations were confirmed by sequencing the QRDR region of each gene. Serotyping and PFGE were performed on all isolates. […] Breakpoints have not been established for all fluoroquinolones, thus percentage resistance was not calculated.

MIC [2] [µg/mL]	MIC50 [2] [µg/mL]	MIC90 [2] [µg/mL]	SMILES	mean PAE ([1]; GFX, 4× MIC for 2 hours) [h]	mean PAE ([1]; GFX, 10× MIC for 2 hours) [h]	difference in duration of PAE between CFX or TFX susceptible and resistant strains ([1]; p<0.05)	mean PAE ([1]; TFX susceptible isolates, 4× MIC for 2 hours) [h]	mean PAE ([1]; TFX susceptible isolates, 10× MIC for 2 hours) [h]
0.03 to 5 (≈ 0.077 to 12.8 µM)	0.06 (≈ 0.154 µM)	0.25 (≈ 0.642 µM)	CO/N=C1\CN(c2nc3c(cc2F)c(=O)c(C(=O)O)cn3C2CC2)CC1CN (racemic) [GFX, (R,S)-7-(3-aminomethyl-4-methoxyiminopyrrolidin-1-yl)-1-cyclopropyl-6-fluoro-4-oxo-1,4-dihydro-1,8-naphthyridine-3-carboxylic acid]	2.7	3.8	no significant difference	–	–
0.25 to 32 (≈ 0.637 to 81.5 µM)	0.5 (≈ 1.27 µM)	16 (≈ 40.8 µM)	C[C@@H]1CN(c2c(F)c(N)c3c(=O)c(C(=O)O)cn(C4CC4)c3c2F)C[C@H](C)N1 [SPA, sparfloxacin]	–	–	–	–	–
0.06 to 8 (≈ 0.144 to 19.2 µM)	0.5 (≈ 1.2 µM)	4 (≈ 9.61 µM)	N[C@@H]1[C@H]2CN(c3nc4c(cc3F)c(=O)c(C(=O)O)cn4-c3ccc(F)cc3F)C[C@@H]12 [TFX, trovafloxacin]	–	–	–	2.1	3.2
0.25 to 8 (≈ 0.666 to 21.3 µM)	0.5 (≈ 1.33 µM)	4 (≈ 10.7 µM)	COc1c(N2CCNC(C)C2)c(F)cc2c(=O)c(C(=O)O)cn(C3CC3)c12 (centres unmarked) [GAT, gatifloxacin]	–	–	–	–	–
1 to 32 (≈ 2.77 to 88.6 µM)	2 (≈ 5.53 µM)	16 (≈ 44.3 µM)	C[C@H]1COc2c(N3CCN(C)CC3)c(F)cc3c(=O)c(C(=O)O)cn1c23 [LEV, levofloxacin]	–	–	–	–	–
0.12 to 8 (≈ 0.334 to 22.3 µM)	0.5 (≈ 1.39 µM)	8 (≈ 22.3 µM)	Cc1c(F)c(N2CCNC(C)C2)cc2c1c(=O)c(C(=O)O)cn2C1CC1 (centres unmarked) [GRE, grepafloxacin]	–	–	–	–	–
0.12 to 4 (≈ 0.299 to 9.96 µM)	0.25 (≈ 0.623 µM)	2 (≈ 4.98 µM)	COc1c(N2C[C@@H]3CCCN[C@@H]3C2)c(F)cc2c(=O)c(C(=O)O)cn(C3CC3)c12 [MOX, moxifloxacin]	–	–	–	–	–
